Measured values: US12459974B2, “Bicyclic peptide ligands specific for Nectin-4” (priority 2018, dated 2025)
Where “and” joins values, the source holds several entries; their conditions need not be identical. Equal values may be shown once. *1 amine or outer side, *2 acyl side, *3 side chain or, on linkers, in order; H or OH if unused. Where a SMILES comes first, the peptide text is derived from it. Bridges are numbered along the chain shown (N, C = ends). Roman numbers before positions name the chains, in order. [ ]: non-standard residue; d: D form. The star is where a group is joined. ξ: configuration not given here. TATA = O=C(CC[*:1])N1CN(C(=O)CC[*:2])CN(C(=O)CC[*:3])C1; Dolaproine = CO[C@@H]([C@@H]1CCCN1)[C@@H](C)C(=O)O; X1 = CC[C@H](C)C(C(CC(=O)[*:2])OC)N(C)[*:1]; 1Nal = N[C@@H](Cc1cccc2ccccc12)C(=O)O; X3 = O=C(CCCC(=O)[*:2])NCCC(=O)[*:1]; PABC = O=C(OCc1ccc(N[*:1])cc1)[*:2]; Hyp = O=C(O)[C@@H]1C[C@@H](O)CN1; hArg = N=C(N)NCCCC[C@H](N)C(=O)O; Cit = NC(=O)NCCC[C@H](N)C(=O)O; X2 = CC(N*)[C@@H](O)c1ccccc1; ξNMeV = CNC(C(=O)O)C(C)C; ξV = CC(C)C(N)C(=O)O; Sar = CNCC(=O)O

How the values were obtained:
HT-1376 xenograft = assay: Example 9.3: in vivo efficacy in HT-1376 xenograft in CB17-SCID mice; parameters: species or system Mus Musculus; settings: 5 mpk, qw, iv; for Tumor volume trace over time: mean
MDA-MB-468 xenograft = assay: Example 9.8: in vivo efficacy of BCY8245, BCY8781 and BCY8245 with BCY8234 in MDA-MB-468 xenograft in Balb/c nude mice; parameters: species or system Mus Musculus; settings: for tumor relapse (in words): following monitoring schedule
[1] = BCY8245 (BT8009) at 3 mg/kg
Method: At various timepoints, animals were euthanized and plasma and tumour taken and snap frozen. Samples were analysed for MMAE.

NCI-H292 xenograft = assay: Example 1: in vivo efficacy in NCI-H292 xenograft (NSCLC model) in BALB/c nude mice; parameters: species or system Mus Musculus
Method: The major endpoint was to see if the tumor growth could be delayed or mice could be cured. Tumor volume was measured three times weekly in two dimensions using a caliper, and the volume was expressed in mm^3 using the formula: V=0.5 a×b^2 where a and b are the long and short diameters of the tumor, respectively. The tumor size was then used for calculations of T/C value. The T/C value (in percent) is an indication of antitumor effectiveness; T and C are the mean volumes of the treated and control groups, respectively, on a given day. TGI was calculated for each group using the formula: TGI (%)=[1−(Ti−T0)/(Vi−V0)]×100; Ti is the average tumor volume of a treatment group on a given day, T0 is the average tumor volume of the treatment group on the day of treatment start, Vi is the average tumor volume of the vehicle control group on the same day with Ti, and V0 is the average tumor volume of the vehicle group on the day of treatment start.
A one-way ANOVA was performed to compare tumor volume among groups, and when a significant F-statistics (a ratio of treatment variance to the error variance) was obtained, comparisons between groups were carried out with Games-Howell test. All data were analyzed using GraphPad Prism 5.0. P<0.05 was considered to be statistically significant.
The NCI-H292 tumor cells will be maintained in medium supplemented with 10% heat inactivated fetal bovine serum at 37° C. in an atmosphere of 5% CO2 in air. The tumor cells will be routinely subcultured twice weekly. The cells growing in an exponential growth phase will be harvested and counted for tumor inoculation.
Each mouse will be inoculated subcutaneously at the right flank with NCI-H292 tumor cells (10×10^6) in 0.2 ml of PBS for tumor development. The animals will be randomized and treatment will be started when the average tumor volume reaches approximately 158-406 mm^3.

LU-01-0412 PDX = assay: Example 12: in vivo efficacy in Lu-01-0412 PDX model of lung cancer; parameters: species or system Mus Musculus
Method: Animals were checked daily for any effects of tumor growth and treatments on normal behavior such as mobility, food and water consumption (by looking only), body weight gain/loss, eye/hair matting and any other abnormal effect as stated in the protocol. Death and observed clinical signs were recorded on the basis of the numbers of animals within each subset.

[2] = 1 mg/kg qw and 3 mg/kg qw in combination with BCY8234 300 mg/kg qw, day 21
[3] = 3 mpk biw iv, day 14 (Table 13)

In the case of `CC[C@H](C)C(C(CC(=O)N1CCC[C@H]1[C@H](OC)[C@@H](C)C(=O)NC(C)[C@@H](O)c1ccccc1)OC)N(C)C(=O)[C@@H](NC(=O)C(C(C)C)N(C)C(=O)OCc1ccc(NC(=O)[C@H](CCCNC(N)=O)NC(=O)C(NC(=O)CCCC(=O)NCCC(=O)N(C)CC(=O)N(C)CC(=O)N(C)CC(=O)N(C)CC(=O)N(C)CC(=O)N(C)CC(=O)N(C)CC(=O)N(C)CC(=O)N(C)CC(=O)N(C)CC(=O)N[C@H]2CSCCC(=O)N3CN4CN(C3)C(=O)CCSC[C@H](NC(=O)[C@@H](CC(=O)O)NC(=O)[C@H](Cc3cccc5ccccc35)NC(=O)[C@@H]3CCCN3C2=O)C(=O)N[C@@H](CCSC)C(=O)N[C@@H](CCCCNC(=N)N)C(=O)N[C@@H](CC(=O)O)C(=O)N[C@@H](Cc2c[nH]c3ccccc23)C(=O)N[C@@H](CO)C(=O)N[C@@H]([C@@H](C)O)C(=O)N2CCC[C@H]2C(=O)N2C[C@H](O)C[C@H]2C(=O)N[C@@H](Cc2c[nH]c3ccccc23)C(=O)N[C@H](C(N)=O)CSCCC4=O)C(C)C)cc1)C(C)C` (stereo partly drawn) [BCY8245, MMAE-PABC-Cit-Val-Glutaryl-BCY8234] (I: [Sar][Sar][Sar][Sar][Sar][Sar][Sar][Sar][Sar][Sar]CP[1Nal][dD]CM[hArg]DWSTP[Hyp]WC-NH2 / II: [ξV][Cit][PABC][ξNMeV]V[X1][Dolaproine]-X2; linker I:11-I:15-I:25 via TATA; linker I:N-II:N via X3), the “Tumor volume trace over time” value (HT-1376 xenograft; day 2 after the start of treatment) was 237 mm^3, the “Tumor volume trace over time” value (HT-1376 xenograft; day 5 after the start of treatment) was 228 mm^3 and the “Tumor volume trace over time” value (HT-1376 xenograft; day 7 after the start of treatment) was 317 mm^3. The “Tumor volume trace over time” value (HT-1376 xenograft; day 9 after the start of treatment) was 394 mm^3, the “Tumor volume trace over time” value (HT-1376 xenograft; day 12 after the start of treatment) was 438 mm^3 and the TGI (HT-1376 xenograft; day 14) was 66.0%. For the same molecule, the “Tumor volume” value (HT-1376 xenograft; day 14, mean ± SEM) was 465 ± 33 mm^3, the T/C (HT-1376 xenograft; day 14, treated/control group average tumor volume) was 43.5% and the “Tumor volume trace over time” value (HT-1376 xenograft; day 14 after the start of treatment) was 465 mm^3. For the same molecule, the “anti-tumor activity (in words)” value (MDA-MB-468 xenograft; 0.3 mg/kg qw or biw) was “did not show any anti-tumor activity”, the TGI (MDA-MB-468 xenograft; [2]) was 75.4% and the “Tumor volume (TV)” value (MDA-MB-468 xenograft; [2]) was 242 mm^3. For the same molecule, the TGI (MDA-MB-468 xenograft; 1 mg/kg qw, day 21) was 92.1%, the “Tumor volume (TV)” value (MDA-MB-468 xenograft; 1 mg/kg qw, day 21) was 204 mm^3 and the “tumor relapse (in words)” value (MDA-MB-468 xenograft; 1 mg/kg qw) was “obvious tumor relapse”. For the same molecule, the TGI (MDA-MB-468 xenograft; 3 mg/kg qw, day 21) was 164.9%, the “Tumor volume (TV)” value (MDA-MB-468 xenograft; 3 mg/kg qw, day 21) was 27 mm^3 and the “tumor relapse (in words)” value (MDA-MB-468 xenograft; 3 mg/kg qw) was “didn't show any tumor relapse”. For the same molecule, the “anti-tumor activity at 3 mg/kg in presence of BCY8234 at 300 mg/kg versus alone (in words)” value (MDA-MB-468 xenograft; 3 mg/kg with BCY8234 300 mg/kg) was “antagonized by BCY8234”, the T/C (MDA-MB-468 xenograft; 0.3 mpk, qw) was 71.4% and the TGI (MDA-MB-468 xenograft; 0.3 mpk, qw) was 52.7%. For the same molecule, the T/C (MDA-MB-468 xenograft; 1 mpk, qw) was 48.6%, the TGI (MDA-MB-468 xenograft; 1 mpk, qw) was 92.1% and the T/C (MDA-MB-468 xenograft; 3 mpk, qw) was 6.5%. The TGI (MDA-MB-468 xenograft; 3 mpk, qw) was 164.9%, the “tumor response (in words)” value (MDA-MB-468 xenograft; former vehicle group, single dose of 5 mg/kg on day 32) was “obvious tumor regression” and the “retention of MMAE in tumour versus plasma (in words)” value [1] was “retained in the tumour longer than in plasma”. For the same molecule, the “antitumor activity (in words)” value (NCI-H292 xenograft; 1 mg/kg qw) was “didn't produce significant antitumor activity”, the Tumor volume (NCI-H292 xenograft; 1/3/5 mpk qw iv, day 0) was 404 ± 65 mm^3 and the Tumor volume (NCI-H292 xenograft; 1/3/5 mpk qw iv, day 2) was 391 ± 42 mm^3. For the same molecule, the Tumor volume (NCI-H292 xenograft; 1/3/5 mpk qw iv, day 4) was 542 ± 14 mm^3, the Tumor volume (NCI-H292 xenograft; 1/3/5 mpk qw iv, day 7) was 721 ± 136 mm^3 and the Tumor volume (NCI-H292 xenograft; 1/3/5 mpk qw iv, day 9) was 762 ± 115 mm^3. The Tumor volume (NCI-H292 xenograft; 1/3/5 mpk qw iv, day 11) was 607 ± 95 mm^3, the Tumor volume (NCI-H292 xenograft; 1/3/5 mpk qw iv, day 14) was 614 ± 89 mm^3 and the Tumor volume (NCI-H292 xenograft; 1/3/5 mpk qw iv, day 16) was 626 ± 93 mm^3. It also gave a Tumor volume (NCI-H292 xenograft; 1/3/5 mpk qw iv, day 18) of 611 ± 93 mm^3, a T/C (NCI-H292 xenograft; 1/3/5 mpk qw iv, day 21) of 30.4% and a TGI (NCI-H292 xenograft; 1/3/5 mpk qw iv, day 21) of 85.7%. It also gave a Tumor volume (NCI-H292 xenograft; 1/3/5 mpk qw iv, day 21) of 654 ± 152 mm^3, a Tumor volume (NCI-H292 xenograft; 1/3/5 mpk qw iv, day 23) of 732 ± 139 mm^3 and a Tumor volume (NCI-H292 xenograft; 1/3/5 mpk qw iv, day 25) of 755 ± 132 mm^3. The Tumor volume (NCI-H292 xenograft; 1/3/5 mpk qw iv, day 28) was 713 ± 114 mm^3, the Tumor volume (NCI-H292 xenograft; 1/3/5 mpk qw iv, day 30) was 762 ± 165 mm^3 and the Tumor volume (NCI-H292 xenograft; 1/3/5 mpk qw iv, day 32) was 968 ± 290 mm^3. The Tumor volume (NCI-H292 xenograft; 1/3/5 mpk qw iv, day 35) was 1119 ± 216 mm^3, the Tumor volume (NCI-H292 xenograft; 3 mpk biw iv, day 0 (Table 9)) was 162 ± 13 mm^3 and the Tumor volume (NCI-H292 xenograft; 3 mpk biw iv, day 2 (Table 9)) was 243 ± 19 mm^3. It also gave a Tumor volume (NCI-H292 xenograft; 3 mpk biw iv, day 4 (Table 9)) of 211 ± 12 mm^3, a Tumor volume (NCI-H292 xenograft; 3 mpk biw iv, day 7 (Table 9)) of 101 ± 11 mm^3 and a Tumor volume (NCI-H292 xenograft; 3 mpk biw iv, day 9 (Table 9)) of 100 ± 8 mm^3. The Tumor volume (NCI-H292 xenograft; 3 mpk biw iv, day 11 (Table 9)) was 87 ± 7 mm^3, the Tumor volume (NCI-H292 xenograft; 3 mpk biw iv, day 14 (Table 9)) was 65 mm^3 and 65 ± 3 mm^3 and the T/C (NCI-H292 xenograft; [3]) was 6.9%. It also gave a TGI (NCI-H292 xenograft; [3]) of 112.2%, a Tumor volume (NCI-H292 xenograft; 3 mpk qw iv, day 0 (Table 9)) of 160 ± 5 mm^3 and a Tumor volume (NCI-H292 xenograft; 3 mpk qw iv, day 2 (Table 9)) of 220 ± 11 mm^3. For the same molecule, the Tumor volume (NCI-H292 xenograft; 3 mpk qw iv, day 4 (Table 9)) was 266 ± 15 mm^3, the Tumor volume (NCI-H292 xenograft; 3 mpk qw iv, day 7 (Table 9)) was 218 ± 23 mm^3 and the Tumor volume (NCI-H292 xenograft; 3 mpk qw iv, day 9 (Table 9)) was 167 ± 10 mm^3. For the same molecule, the Tumor volume (NCI-H292 xenograft; 3 mpk qw iv, day 11 (Table 9)) was 161 ± 36 mm^3, the Tumor volume (NCI-H292 xenograft; 3 mpk qw iv, day 14 (Table 9)) was 149 mm^3 and 149 ± 43 mm^3 and the T/C (NCI-H292 xenograft; 3 mpk qw iv, day 14 (Table 13)) was 15.8%. For the same molecule, the TGI (NCI-H292 xenograft; 3 mpk qw iv, day 14 (Table 13)) was 101.4%, the Tumor volume (NCI-H292 xenograft; 5 mpk qw iv, day 0 (Table 9)) was 160 ± 9 mm^3 and the Tumor volume (NCI-H292 xenograft; 5 mpk qw iv, day 2 (Table 9)) was 176 ± 7 mm^3. It also gave a Tumor volume (NCI-H292 xenograft; 5 mpk qw iv, day 4 (Table 9)) of 191 ± 3 mm^3, a Tumor volume (NCI-H292 xenograft; 5 mpk qw iv, day 7 (Table 9)) of 105 ± 8 mm^3 and a Tumor volume (NCI-H292 xenograft; 5 mpk qw iv, day 9 (Table 9)) of 82 ± 3 mm^3. The Tumor volume (NCI-H292 xenograft; 5 mpk qw iv, day 11 (Table 9)) was 91 ± 14 mm^3, the Tumor volume (NCI-H292 xenograft; 5 mpk qw iv, day 14 (Table 9)) was 83 mm^3 and 83 ± 8 mm^3 and the T/C (NCI-H292 xenograft; 5 mpk qw iv, day 14 (Table 13)) was 8.8%. The TGI (NCI-H292 xenograft; 5 mpk qw iv, day 14 (Table 13)) was 109.8%, the “antitumor activity (in words)” value (NCI-H292 xenograft; after increasing the dosage to 3 mg/kg from day 7) was “obvious antitumor activity” and the “efficacy (in words)” value (NCI-H292 xenograft; after increasing the dosage to 5 mg/kg on day 21) was “not further improved”. For the same molecule, the “anti-tumour activity (in words)” value (NCI-H292 xenograft; mouse, in vivo) was “good anti-tumour activity”, the “efficacy (in words)” value (LU-01-0412 PDX; 1 mg/kg qw) was “reduction in tumour growth rate” and the “efficacy (in words)” value (LU-01-0412 PDX; 3 mg/kg qw) was “marked tumor regression”. The “animals with no tumour regrowth” value (LU-01-0412 PDX; 3 mg/kg qw, after cessation of dosing (Day 21) out to 105 days post study start) was 5/6 and the “response of large tumors (vehicle treated group) to a single dose (in words)” value (LU-01-0412 PDX; single dose) was “regressed”.
